Results from ChEMBL document CHEMBL5113511, “Discovery of Small-Molecule Degraders of the CDK9-Cyclin T1 Complex for Targeting Transcriptional Addiction in Prostate Cancer” (J Med Chem, 2022).
The source made the active and inactive calls. No cut-off for these calls is given here.

Key:
[1] = target: T1, CDK9/cyclin T1 (Homo sapiens) (UniProt O60563+P50750); experiment: Induction of CDK9/Cyclin T1 degradation in human 22Rv1 cells assessed as downregulation of MCL1 protein expression at 0.3 to 3 uM incubated for 24 hrs by immunoblot analysis; assay type: cell-based; conditions: dose 0.3-3 µM
[2] = target: T1, CDK9/cyclin T1 (Homo sapiens); experiment: Induction of CDK9/Cyclin T1 degradation in human 22Rv1 cells assessed as downregulation of SLC1A5 gene expression at 2 uM incubated for 24 hrs by RNA-Seq based analysis; assay type: cell-based
[3] = target: T1, CDK9/cyclin T1 (Homo sapiens); experiment: Induction of CDK9/Cyclin T1 degradation in human 22Rv1 cells assessed as downregulation of VIM gene expression at 2 uM incubated for 24 hrs by RNA-Seq based analysis; assay type: cell-based
[4] = target: T1, CDK9/cyclin T1 (Homo sapiens); experiment: Induction of CDK9/Cyclin T1 degradation in human 22Rv1 cells assessed as downregulation of AR-V7 splice variant protein expression at 0.3 to 3 uM measured after 24 hrs by immunoblot analysis; assay type: cell-based; conditions: dose 0.3-3 µM
Cyclin-T1 [5] = target: T2, Cyclin-T1 (Homo sapiens, UniProt O60563); experiment: Induction of HyT-mediated degradation of Cyclin T1 in human 22Rv1 cells assessed as reduction in Cyclin T1 protein level at 3 uM measured after 24 to 48 hrs by immunoblot analysis; assay type: cell-based; conditions: time 24-48 hrs
T2 sequence (O60563 whole entry): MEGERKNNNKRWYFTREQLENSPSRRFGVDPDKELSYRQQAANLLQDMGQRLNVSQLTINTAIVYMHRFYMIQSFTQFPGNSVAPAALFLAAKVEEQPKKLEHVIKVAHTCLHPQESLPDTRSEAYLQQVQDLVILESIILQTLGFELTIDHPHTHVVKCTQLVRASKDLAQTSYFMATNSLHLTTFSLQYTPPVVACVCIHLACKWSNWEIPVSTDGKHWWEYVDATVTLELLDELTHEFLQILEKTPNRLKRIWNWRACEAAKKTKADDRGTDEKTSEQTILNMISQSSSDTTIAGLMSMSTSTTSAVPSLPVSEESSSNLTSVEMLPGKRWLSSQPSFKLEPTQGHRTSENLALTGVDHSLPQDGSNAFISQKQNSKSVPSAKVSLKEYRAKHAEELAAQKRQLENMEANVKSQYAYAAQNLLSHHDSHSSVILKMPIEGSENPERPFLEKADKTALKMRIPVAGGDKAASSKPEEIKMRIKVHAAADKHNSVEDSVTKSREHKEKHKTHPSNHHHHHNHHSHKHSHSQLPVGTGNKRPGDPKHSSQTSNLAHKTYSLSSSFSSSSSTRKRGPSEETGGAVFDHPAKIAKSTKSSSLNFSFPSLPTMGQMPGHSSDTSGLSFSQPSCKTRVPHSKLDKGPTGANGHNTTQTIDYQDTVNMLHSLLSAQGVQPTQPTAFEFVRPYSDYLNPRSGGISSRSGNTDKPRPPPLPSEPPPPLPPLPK

[6] = target: T1, CDK9/cyclin T1 (Homo sapiens); experiment: Induction of CDK9/Cyclin T1 degradation in human 22Rv1 cells assessed as inhibition of Ser2 phosphorylation of RNA Pol II CTD at 0.3 to 3 uM incubated for 24 hrs by immunoblot analysis; assay type: cell-based; conditions: dose 0.3-3 µM
[7] = target: G1/S-specific cyclin-E1 (Homo sapiens) (UniProt P24864); experiment: Induction of HyT-mediated degradation of cyclin E1 in human 22Rv1 cells assessed as reduction in cyclin E1 level at 6 uM incubated for 24 hrs by immunoblot analysis; assay type: cell-based
Chain of G1/S-specific cyclin-E1 (Homo sapiens) (P24864 whole entry): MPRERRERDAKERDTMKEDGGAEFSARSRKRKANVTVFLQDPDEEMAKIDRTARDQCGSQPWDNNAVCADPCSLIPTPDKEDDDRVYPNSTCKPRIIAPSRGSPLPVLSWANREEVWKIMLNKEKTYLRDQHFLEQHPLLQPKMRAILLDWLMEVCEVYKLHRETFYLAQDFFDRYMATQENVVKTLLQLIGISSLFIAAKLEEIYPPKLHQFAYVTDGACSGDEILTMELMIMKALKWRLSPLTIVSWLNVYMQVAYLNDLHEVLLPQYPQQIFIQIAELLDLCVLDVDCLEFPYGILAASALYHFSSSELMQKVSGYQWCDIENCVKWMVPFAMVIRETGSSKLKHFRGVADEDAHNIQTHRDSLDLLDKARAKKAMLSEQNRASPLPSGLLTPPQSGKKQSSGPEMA

[8] = target: T1, CDK9/cyclin T1 (Homo sapiens); experiment: Induction of CDK9/Cyclin T1 degradation in human 22Rv1 cells assessed as downregulation of c-Myc protein expression at 2 uM measured after 24 hrs by immunoblot analysis; assay type: cell-based
[9] = target: T1, CDK9/cyclin T1 (Homo sapiens); experiment: Induction of CDK9/Cyclin T1 degradation in human 22Rv1 cells assessed as downregulation of KLK2 gene expression at 2 uM incubated for 24 hrs by RNA-Seq based analysis; assay type: cell-based
[10] = target: Glycogen synthase kinase-3 alpha (Homo sapiens) (UniProt P49840); experiment: Induction of Hyt-mediated degradation of GSK3A in human 22Rv1 cells assessed as downregulation of GSK3A protein level at 2 uM incubated for 24 hrs by DIA-based proteomics analysis; assay type: cell-based
Chain of Glycogen synthase kinase-3 alpha (Homo sapiens) (P49840 2-483 limits assumed): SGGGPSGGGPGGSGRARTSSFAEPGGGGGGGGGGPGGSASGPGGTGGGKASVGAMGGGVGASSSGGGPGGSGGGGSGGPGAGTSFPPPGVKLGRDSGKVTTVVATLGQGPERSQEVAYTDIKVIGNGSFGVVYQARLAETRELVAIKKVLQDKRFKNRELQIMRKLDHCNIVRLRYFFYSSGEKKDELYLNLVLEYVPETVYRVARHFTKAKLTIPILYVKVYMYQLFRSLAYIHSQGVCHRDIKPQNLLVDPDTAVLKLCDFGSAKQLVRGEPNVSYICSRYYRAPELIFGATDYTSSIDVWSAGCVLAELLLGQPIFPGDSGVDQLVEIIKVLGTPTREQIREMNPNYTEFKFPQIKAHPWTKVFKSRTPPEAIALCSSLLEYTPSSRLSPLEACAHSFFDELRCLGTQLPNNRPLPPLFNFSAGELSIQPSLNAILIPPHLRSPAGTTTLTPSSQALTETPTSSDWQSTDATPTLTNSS

[11] = target: T1, CDK9/cyclin T1 (Homo sapiens); experiment: Induction of CDK9/Cyclin T1 degradation in human 22Rv1 cells assessed as downregulation of CCNE2 gene expression at 2 uM incubated for 24 hrs by RNA-Seq based analysis; assay type: cell-based
CWR22R [12] = experiment: Induction of apoptosis in human 22Rv1 cells at 0.3 to 1 uM incubated for 24 hrs by AnnexinV-FITC/PI staining based flow cytometry; assay type: functional, cell-based; conditions: dose 0.3-1 µM
CWR22R [13] = experiment: Downregulation of CDK6 level in human 22Rv1 cells at 3 uM measured after 12 hrs by DIA-based proteomics analysis; assay type: functional, cell-based
[14] = target: T1, CDK9/cyclin T1 (Homo sapiens); experiment: Induction of CDK9/Cyclin T1 degradation in human 22Rv1 cells assessed as downregulation of KLK1 gene expression at 2 uM incubated for 24 hrs by RNA-Seq based analysis; assay type: cell-based
[15] = target: T3, Cyclin-dependent kinase 9 (Homo sapiens, UniProt P50750); experiment: Induction of HyT-mediated degradation of CDK9 in human 22Rv1 cells assessed as reduction in CDK9 protein level at 3 uM measured after 24 to 48 hrs by immunoblot analysis; assay type: cell-based; conditions: time 24-48 hrs
T3 sequence (P50750 whole entry): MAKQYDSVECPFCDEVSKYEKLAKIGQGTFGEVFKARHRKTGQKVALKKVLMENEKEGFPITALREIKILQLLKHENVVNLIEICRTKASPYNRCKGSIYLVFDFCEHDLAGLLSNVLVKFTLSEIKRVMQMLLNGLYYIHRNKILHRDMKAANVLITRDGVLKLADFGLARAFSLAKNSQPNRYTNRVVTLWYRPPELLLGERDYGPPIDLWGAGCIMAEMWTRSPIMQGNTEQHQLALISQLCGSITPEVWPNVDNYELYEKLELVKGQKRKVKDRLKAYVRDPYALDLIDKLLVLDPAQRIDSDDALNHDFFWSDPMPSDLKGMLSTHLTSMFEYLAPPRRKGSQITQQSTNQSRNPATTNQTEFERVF

CWR22R [16] = experiment: Induction of cell cycle arrest in human 22Rv1 cells assessed as accumulation of cells at sub-G1 phase at 0.3 to 1 uM incubated for 24 hrs by propidium iodide staining based flow cytometry; assay type: functional; conditions: dose 0.3-1 µM
[17] = target: T1, CDK9/cyclin T1 (Homo sapiens); experiment: Induction of CDK9/Cyclin T1 degradation in human 22Rv1 cells assessed as downregulation of NOTCH1 gene expression at 2 uM incubated for 24 hrs by RNA-Seq based analysis; assay type: cell-based
[18] = target: T1, CDK9/cyclin T1 (Homo sapiens); experiment: Induction of CDK9/Cyclin T1 degradation in human 22Rv1 cells assessed as downregulation of MYCN gene expression at 2 uM incubated for 24 hrs by RNA-Seq based analysis; assay type: cell-based
Cyclin-T1 [19] = target: T2, Cyclin-T1; experiment: Induction of HyT-mediated degradation of Cyclin T1 in human 22Rv1 cells at 0.3 to 3 uM incubated for 24 hrs by immunoblot analysis; assay type: cell-based; conditions: dose 0.3-3 µM
[20] = target: T1, CDK9/cyclin T1 (Homo sapiens); experiment: Induction of CDK9/Cyclin T1 degradation in human 22Rv1 cells assessed as downregulation of AR protein expression at 2 uM measured after 48 hrs by immunoblot analysis relative to control; assay type: cell-based
[21] = target: T1, CDK9/cyclin T1 (Homo sapiens); experiment: Induction of CDK9/Cyclin T1 degradation in human 22Rv1 cells assessed as downregulation of c-Myc protein expression at 2 uM measured after 48 hrs by immunoblot analysis; assay type: cell-based
[22] = target: Cyclin-dependent kinase 6 (Homo sapiens) (UniProt Q00534); experiment: Induction of CDK6 degradation in human 22Rv1 cells assessed as downregulation of CDK6 level at 3 uM measured after 12 hrs by DIA-based proteomics analysis; assay type: cell-based
Chain of Cyclin-dependent kinase 6 (Homo sapiens) (Q00534 whole entry): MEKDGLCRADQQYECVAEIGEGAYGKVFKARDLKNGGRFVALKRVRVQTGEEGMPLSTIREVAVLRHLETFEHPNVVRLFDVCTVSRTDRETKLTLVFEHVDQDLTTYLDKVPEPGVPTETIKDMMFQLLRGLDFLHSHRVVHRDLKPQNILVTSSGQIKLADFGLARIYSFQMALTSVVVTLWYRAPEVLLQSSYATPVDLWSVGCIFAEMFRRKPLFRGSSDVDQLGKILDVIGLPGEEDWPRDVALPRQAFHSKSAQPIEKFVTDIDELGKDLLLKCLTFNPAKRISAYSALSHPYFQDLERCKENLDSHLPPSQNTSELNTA

[23] = target: T3, Cyclin-dependent kinase 9; experiment: Induction of Flag-tagged CDK9 (unknown origin) polyubiquitination expressed in HEK293T cells co-transfected with HA-tagged Cyclin T1 and Myc ubiquitin assessed as increase in K48-linkage poly-ubiqutinated CDK9 level at 1 to 2 uM incubated for 20 hrs by immunoprecipitation analysis; assay type: cell-based; conditions: dose 1-2 µM
[24] = target: T1, CDK9/cyclin T1 (Homo sapiens); experiment: Induction of CDK9/Cyclin T1 degradation in human 22Rv1 cells assessed as downregulation of CDC6 gene expression at 2 uM incubated for 24 hrs by RNA-Seq based analysis; assay type: cell-based
[25] = target: T1, CDK9/cyclin T1 (Homo sapiens); experiment: Induction of CDK9/Cyclin T1 degradation in human 22Rv1 cells assessed as downregulation of ZNF517 gene expression at 2 uM incubated for 24 hrs by RNA-Seq based analysis; assay type: cell-based
[26] = target: T1, CDK9/cyclin T1 (Homo sapiens); experiment: Induction of CDK9/Cyclin T1 degradation in human 22Rv1 cells assessed as downregulation of JMJD6 protein expression at 2 uM measured after 24 hrs by immunoblot analysis; assay type: cell-based
[27] = target: T1, CDK9/cyclin T1 (Homo sapiens); experiment: Induction of CDK9/Cyclin T1 degradation in human 22Rv1 cells assessed as decrease in cyclin B1 protein expression at 3 uM measured for 36 hrs by DIA-based proteomics analysis; assay type: cell-based
[28] = target: T1, CDK9/cyclin T1 (Homo sapiens); experiment: Induction of CDK9/Cyclin T1 degradation in human 22Rv1 cells assessed as downregulation of AR-V7 splice variant protein expression at 2 uM measured after 48 hrs by immunoblot analysis relative to control; assay type: cell-based
[29] = target: T1, CDK9/cyclin T1 (Homo sapiens); experiment: Induction of CDK9/Cyclin T1 degradation in human 22Rv1 cells assessed as downregulation of AR protein expression at 3 uM measured for 36 hrs by DIA-based proteomics analysis; assay type: cell-based
[30] = target: T1, CDK9/cyclin T1 (Homo sapiens); experiment: Induction of CDK9/Cyclin T1 degradation in human 22Rv1 cells assessed as downregulation of AR protein expression at 0.3 to 3 uM measured after 24 hrs by immunoblot analysis; assay type: cell-based; conditions: dose 0.3-3 µM
[31] = target: T1, CDK9/cyclin T1 (Homo sapiens); experiment: Induction of CDK9/Cyclin T1 degradation in human 22Rv1 cells assessed as downregulation of c-Myc protein expression at 0.3 to 3 uM measured after 24 hrs by immunoblot analysis; assay type: cell-based; conditions: dose 0.3-3 µM
[32] = target: T1, CDK9/cyclin T1 (Homo sapiens); experiment: Induction of CDK9/Cyclin T1 degradation in human 22Rv1 cells assessed as downregulation of IKBKE gene expression at 2 uM incubated for 24 hrs by RNA-Seq based analysis; assay type: cell-based

Activity [1]: Active
Activity [2]: Active
Activity [3]: Active
Activity [4]: Active
Activity (Cyclin-T1 [5]): Active
Activity [6]: Active
Activity [7]: Active
Activity [8]: Active
Activity [9]: Active
Activity [10]: Active
Activity [11]: Active
Activity [14]: Active
Activity [15]: Active
Activity [17]: Active
Activity [18]: Active
Activity (Cyclin-T1 [19]): Active
Activity [20]: 100%
Activity [21]: Active
Activity [22]: Active
Activity [23]: Active
Activity [24]: Active
Activity [25]: Active
Activity [26]: Active
Activity [27]: Active
Activity [28]: 100%
Activity [29]: Active
Activity [30]: Active
Activity [31]: Active
Activity [32]: Active
Structure (SMILES): CC(C)[C@@H]1CC[C@@H](C)C[C@H]1OCC(=O)NCCS(=O)(=O)N1CCC(C(=O)Nc2ncc(SCc3ncc(C(C)(C)C)o3)s2)CC1
Activity (CWR22R [12]): Active
inhibition (CWR22R [13]): Active
Activity (CWR22R [16]): Active
